# Experiments:
# KB = test: Cytotoxicity against human KB cells by MTT assay; type: functional; conditions: read-out: ED50 (the source's name)
# [1] = Cytotoxicity against human HEPA 59T/VGH cells by MTT assay; type: functional; conditions: read-out: ED50 (the source's name)
Compound,EC50 (KB) [µg/mL],EC50 [1] [µg/mL]
C=C(C)[C@@H]1CC(=O)[C@H]2[C@H](C1)[C@@H]1C(=O)O[C@@H]3C[C@@]4(C)O[C@@H]2C(=O)[C@@H]4[C@H]13,> 20,> 20
C=C(C)[C@H]1C/C=C2\C(=O)O[C@H](C[C@@]3(C)CC(=O)[C@@H](CC(=O)C1)O3)[C@H]2O,2.3,2.4
C=C(C)[C@H]1C/C=C2\C(=O)O[C@H](C[C@@]3(C)CC(=O)[C@@H](CC(=O)C1)O3)[C@@H]2O,2.5,2.6
COc1cccc2c1C(=O)c1c(O)c3c(c(O)c1C2=O)C[C@@](O)(C(=O)CO)C[C@@H]3O[C@H]1C[C@H](N)[C@H](O)[C@H](C)O1 [DOXORUBICIN],0.3,0.3
C=C(C)[C@H]1C/C=C(\C(=O)OC)CC(=O)C[C@@]2(C)CC(=O)[C@@H](CC(=O)C1)O2 [NORCEMBRENE 5],> 20,17.5
C=C(C)[C@@H]1CC(=O)CC2=C(C1)[C@@H]1C(=O)O[C@@H]3C[C@](C)(O)[C@H](C2=O)[C@H]13 [SCABROLIDE A],> 20,> 20
C=C(C)[C@@H]1CC(=O)C[C@@H]2O[C@](C)(CC2=O)C[C@@H]2C=C(C(=O)O2)[C@@H](OC)C1 [SCABROLIDE C],11.9,17.8
C=C(C)[C@H]1CC[C@]23O[C@H]2[C@@H](C[C@@]2(C)CC(=O)[C@H](CC(=O)C1)O2)OC3=O [SCABROLIDE D],> 20,> 20

# Source: ChEMBL document CHEMBL1150168, “Scabrolides A-D, four new norditerpenoids isolated from the soft coral Sinularia scabra” (2002)
